From patent US20250011368A1, “DLL3 TARGETING PEPTIDES AND CONSTRUCTS THEREOF” (MARIANA ONCOLOGY INC., priority 2023, published 2025)
Numbered stars: 1 amine (or outer) side, 2 acyl side, 3 side chain; on linkers, the order of the positions; unused ones are H or OH. Bridge positions count the residues as written; N and C are the ends. Square brackets hold non-standard residues; d marks the D form. Side chains are listed from the residue outwards. Peptide text beside a SMILES is read from it. I, II: the chains in the order shown. * marks the point of attachment. X10 = C[N+](C)(CCNC(=O)CCOCCOCCOCCOCCOCCOCCOCCOCCNC(=O)CN1CCN(CC(=O)O)CCN(CC(=O)O)CCN(CC(=O)O)CC1)CC(=O)*; DOTA = O=C(O)CN1CCN(CC(=O)O)CCN(CC(=O)*)CCN(CC(=O)O)CC1; Trp(7-Me) = Cc1cccc2c(C[C@H](N)C(=O)O)c[nH]c12; PEG8 = NCCOCCOCCOCCOCCOCCOCCOCCOCCC(=O)O; γGlu = O=C(O)[C@H](CCC(=O)[*:2])N[*:1]; 2Nal = N[C@@H](Cc1ccc2ccccc2c1)C(=O)O; X12 = C[N+](C)(CCN[*:1])CC(=O)[*:2]; Trx = NC[C@H]1CC[C@H](C(=O)O)CC1; 3Pal = N[C@@H](Cc1cccnc1)C(=O)O; Lauroyl = CCCCCCCCCCCC(=O)*; 4Amb = NCc1ccc(C(=O)O)cc1; Orn = NCCC[C@H](N)C(=O)O; Ahx = NCCCCCC(=O)O; Sar = CNCC(=O)O

What follows are molecules tested against T1, human DLL3 (Homo sapiens, UniProt Q9NYJ7) (assay: Affinity determination by Surface Plasmon Resonance (SPR)). Details: not given.
T1 sequence (Q9NYJ7 27-618): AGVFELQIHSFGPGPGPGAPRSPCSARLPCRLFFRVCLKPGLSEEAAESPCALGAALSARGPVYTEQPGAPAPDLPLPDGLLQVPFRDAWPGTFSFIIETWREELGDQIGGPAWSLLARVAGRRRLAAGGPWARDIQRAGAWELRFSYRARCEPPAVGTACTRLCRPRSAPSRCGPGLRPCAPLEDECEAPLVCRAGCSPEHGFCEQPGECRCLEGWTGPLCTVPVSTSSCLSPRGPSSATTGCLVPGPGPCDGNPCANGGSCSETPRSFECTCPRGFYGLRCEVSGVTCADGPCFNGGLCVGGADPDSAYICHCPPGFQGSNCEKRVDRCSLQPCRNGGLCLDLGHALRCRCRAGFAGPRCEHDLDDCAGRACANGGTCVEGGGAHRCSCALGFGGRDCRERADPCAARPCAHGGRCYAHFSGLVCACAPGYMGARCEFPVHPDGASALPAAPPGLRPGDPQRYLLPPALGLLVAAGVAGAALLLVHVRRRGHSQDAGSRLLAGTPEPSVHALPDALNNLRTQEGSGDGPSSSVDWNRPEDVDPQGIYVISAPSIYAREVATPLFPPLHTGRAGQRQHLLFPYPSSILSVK
Format: binding
How it was run: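 Biotinylated human DLL3 was captured on a streptavidin chip with a reference surface. Compounds at several concentrations were injected at 100 μL/minute in phosphate buffer (137 mM NaCl, 2.7 mM KCl, 0.05% P20, 2% DMSO). Affinity and kinetics came from 1:1 model fits of the sensorgrams.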
`CC[C@H](C)[C@H](NC(=O)[C@@H](NC(=O)[C@H](Cc1c[nH]c2ccccc12)NC(C)=O)[C@@H](C)O)C(=O)N[C@H]1CSSC[C@@H](C(=O)N[C@@H](Cc2c[nH]c3ccccc23)C(=O)N2CCC[C@H]2C(=O)N[C@H](CCCCNC(=O)C[N+](C)(C)CCNC(=O)CCOCCOCCOCCOCCOCCOCCOCCOCCNC(=O)CN2CCN(CC(=O)O)CCN(CC(=O)O)CCN(CC(=O)O)CC2)C(N)=O)NC(=O)[C@H](CC(=O)O)NC(=O)[C@H](Cc2c[nH]cn2)NC(=O)[C@H](Cc2ccc3ccccc3c2)NC(=O)[C@H](CC(N)=O)NC(=O)[C@H](CC(N)=O)NC1=O` [compound 363, Ac-W-T-I-C(3)-N-N-(2Nal)-H-D-C(3)-W-P-[D-Lys(SP6-PEG8-DOTA)]-NH2] (Ac-WTICNN[2Nal]HDCWP[dK](X10)-NH2; disulfide 4-10) gave a Kd of less than 1 nM.

Same assay, conditions: 25° C., biotinylated human DLL3 immobilized on streptavidin sensor chip, 1:1 binding model; read-out: SPR KD
Molecule `CC[C@H](C)[C@H](NC(=O)[C@@H](NC(=O)[C@H](Cc1c[nH]c2ccccc12)NC(C)=O)[C@@H](C)O)C(=O)N[C@H]1CSSC[C@@H](C(=O)N[C@@H](Cc2c[nH]c3ccccc23)C(=O)N2CCC[C@H]2C(=O)NCC[N+](C)(C)CC(=O)NCCOCCOCCOCCOCCOCCOCCOCCOCCC(=O)N[C@H](CCCCNC(=O)CN2CCN(CC(=O)O)CCN(CC(=O)O)CCN(CC(=O)O)CC2)C(N)=O)NC(=O)[C@H](CC(=O)O)NC(=O)[C@H](Cc2c[nH]cn2)NC(=O)[C@H](Cc2ccc3ccccc3c2)NC(=O)[C@H](CC(N)=O)NC(=O)[C@H](CC(N)=O)NC1=O` [compound 364, Ac-W-T-I-C(3)-N-N-(2Nal)-H-D-C(3)-W-P-SP6-PEG8-[D-Lys(DOTA)]-NH2] (Ac-WTICNN[2Nal]HDCWP[X12][PEG8][dK](DOTA)-NH2; disulfide 4-10) has a Kd of less than 1 nM.
For `CC[C@H](C)[C@H](NC(=O)[C@@H](NC(=O)[C@H](Cc1c[nH]c2ccccc12)NC(C)=O)[C@@H](C)O)C(=O)N[C@H]1CSSC[C@@H](C(=O)N[C@@H](Cc2c[nH]c3ccccc23)C(=O)N2CCC[C@H]2C(=O)N[C@H](CCCCNC(=O)CNC(=O)CNC(=O)[C@H](CO)NC(=O)CNC(=O)CNC(=O)[C@H](CO)NC(=O)CN2CCN(CC(=O)O)CCN(CC(=O)O)CCN(CC(=O)O)CC2)C(N)=O)NC(=O)[C@H](CC(=O)O)NC(=O)[C@H](Cc2c[nH]cn2)NC(=O)[C@H](Cc2ccc3ccccc3c2)NC(=O)[C@H](CC(N)=O)NC(=O)[C@H](CC(N)=O)NC1=O` [compound 365, Ac-W-T-I-C(3)-N-N-(2Nal)-H-D-C(3)-W-P-[D-Lys(G-G-S-G-G-S-DOTA)]-NH2] (I: Ac-WTICNN[2Nal]HDCWP[dK]-NH2 / II: {DOTA}-SGGSGG; disulfide I:4-I:10; amide I:13-II:C), the Kd was less than 1 nM.
`CC[C@H](C)[C@H](NC(=O)[C@@H](NC(=O)[C@H](Cc1c[nH]c2ccccc12)NC(C)=O)[C@@H](C)O)C(=O)N[C@H]1CSSC[C@@H](C(=O)N[C@@H](Cc2c[nH]c3ccccc23)C(=O)N2CCC[C@H]2C(=O)N[C@H](CCCCNC(=O)CN2CCN(CC(=O)O)CCN(CC(=O)O)CCN(CC(=O)O)CC2)C(N)=O)NC(=O)[C@H](CC(=O)O)NC(=O)[C@H](Cc2cccnc2)NC(=O)[C@H](Cc2ccc3ccccc3c2)NC(=O)[C@H](CC(N)=O)NC(=O)[C@H](CC(N)=O)NC1=O` [compound 366, Ac-W-T-I-C(3)-N-N-(2Nal)-(3Pya)-D-C(3)-W-P-[D-Lys(DOTA)]-NH2] (Ac-WTICNN[2Nal][3Pal]DCWP[dK](DOTA)-NH2; disulfide 4-10) gave a Kd of less than 1 nM.
With `CCCCCCCCCCCC(=O)NCCCC[C@@H]1NC(=O)[C@H](Cc2ccc3ccccc3c2)NC(=O)[C@H](CC(N)=O)NC(=O)[C@H](CC(N)=O)NC(=O)[C@@H](NC(=O)[C@@H](NC(=O)[C@@H](NC(=O)[C@H](Cc2c[nH]c3ccccc23)NC(C)=O)[C@@H](C)O)[C@@H](C)CC)CSSC[C@@H](C(=O)N[C@@H](Cc2c[nH]c3ccccc23)C(=O)N2CCC[C@H]2C(=O)N[C@H](CCCCNC(=O)CC[C@H](NC(=O)CC[C@H](NC(=O)CC[C@H](NC(=O)CN2CCN(CC(=O)O)CCN(CC(=O)O)CCN(CC(=O)O)CC2)C(=O)O)C(=O)O)C(=O)O)C(N)=O)NC(=O)[C@H](CC(=O)O)NC1=O` [compound 368, Ac-W-T-I-C(3)-N-N-(2Nal)-K(C12)-D-C(3)-W-P-[D-Lys(gE-gE-gE-DOTA)]-NH2] (Ac-WTICNN[2Nal]K(Lauroyl)DCWP[dK]([γGlu-γGlu-γGlu-DOTA])-NH2; disulfide 4-10) the Kd was 1 to 10 nM.
For `CCCCCCCCCCCC(=O)NCCCC[C@@H]1NC(=O)[C@H](Cc2ccc3ccccc3c2)NC(=O)[C@H](CC(N)=O)NC(=O)[C@H](CC(N)=O)NC(=O)[C@@H](NC(=O)[C@@H](NC(=O)[C@@H](NC(=O)[C@H](Cc2c[nH]c3c(C)cccc23)NC(C)=O)[C@@H](C)O)[C@@H](C)CC)CSSC[C@@H](C(=O)N[C@@H](Cc2c[nH]c3ccccc23)C(=O)N2CCC[C@H]2C(=O)N[C@H](CCCCNC(=O)CN2CCN(CC(=O)O)CCN(CC(=O)O)CCN(CC(=O)O)CC2)C(N)=O)NC(=O)[C@H](CC(=O)O)NC1=O` [compound 369, Ac-(7Me-W)-T-I-C(3)-N-N-(2Nal)-H-D-C(3)-W-P-[D-Lys(DOTA)]-NH2] (Ac-[Trp(7-Me)]TICNN[2Nal]K(Lauroyl)DCWP[dK](DOTA)-NH2; disulfide 4-10), the Kd was 1 to 10 nM.
For `CC[C@H](C)[C@H](NC(=O)[C@@H](NC(=O)[C@H](Cc1c[nH]c2ccccc12)NC(C)=O)[C@@H](C)O)C(=O)N[C@H]1CSSC[C@@H](C(=O)N[C@@H](Cc2c[nH]c3ccccc23)C(=O)N2CCC[C@H]2C(=O)N(C)CC(=O)N(C)CC(=O)N(C)CC(=O)N(C)CC(=O)N(C)CC(=O)N[C@H](CCCCNC(=O)CN2CCN(CC(=O)O)CCN(CC(=O)O)CCN(CC(=O)O)CC2)C(N)=O)NC(=O)[C@H](CC(=O)O)NC(=O)[C@H](Cc2cnc[nH]2)NC(=O)[C@H](Cc2ccc3ccccc3c2)NC(=O)[C@H](CC(N)=O)NC(=O)[C@H](CC(N)=O)NC1=O` [compound 371, Ac-W-T-I-C(3)-N-N-(2Nal)-H-D-C(3)-W-P-(Sar)5-[D-Lys(DOTA)]-NH2] (Ac-WTICNN[2Nal]HDCWP[Sar][Sar][Sar][Sar][Sar][dK](DOTA)-NH2; disulfide 4-10), the Kd was less than 1 nM.
For `CC[C@H](C)[C@H](NC(=O)[C@@H](NC(=O)[C@H](Cc1c[nH]c2ccccc12)NC(C)=O)[C@@H](C)O)C(=O)N[C@H]1CSSC[C@@H](C(=O)N[C@@H](Cc2c[nH]c3ccccc23)C(=O)N2CCC[C@H]2C(=O)NCCCCCC(=O)NCCCCCC(=O)N[C@H](CCCCNC(=O)CN2CCN(CC(=O)O)CCN(CC(=O)O)CCN(CC(=O)O)CC2)C(N)=O)NC(=O)[C@H](CC(=O)O)NC(=O)[C@H](Cc2cnc[nH]2)NC(=O)[C@H](Cc2ccc3ccccc3c2)NC(=O)[C@H](CC(N)=O)NC(=O)[C@H](CC(N)=O)NC1=O` [compound 372, Ac-W-T-I-C(3)-N-N-(2Nal)-H-D-C(3)-W-P-(Ahx)2-[D-Lys(DOTA)]-NH2] (Ac-WTICNN[2Nal]HDCWP[Ahx][Ahx][dK](DOTA)-NH2; disulfide 4-10), the Kd was less than 1 nM.
Work on `CC[C@H](C)[C@H](NC(=O)[C@@H](NC(=O)[C@H](Cc1c[nH]c2ccccc12)NC(C)=O)[C@@H](C)O)C(=O)N[C@H]1CSSC[C@@H](C(=O)N[C@@H](Cc2c[nH]c3ccccc23)C(=O)N2CCC[C@H]2C(=O)NC[C@H]2CC[C@H](C(=O)NC[C@H]3CC[C@H](C(=O)N[C@H](CCCCNC(=O)CN4CCN(CC(=O)O)CCN(CC(=O)O)CCN(CC(=O)O)CC4)C(N)=O)CC3)CC2)NC(=O)[C@H](CC(=O)O)NC(=O)[C@H](Cc2cnc[nH]2)NC(=O)[C@H](Cc2ccc3ccccc3c2)NC(=O)[C@H](CC(N)=O)NC(=O)[C@H](CC(N)=O)NC1=O` [compound 373, Ac-W-T-I-C(3)-N-N-(2Nal)-H-D-C(3)-W-P-(Cyx)2-[D-Lys(DOTA)]-NH2] (Ac-WTICNN[2Nal]HDCWP[Trx][Trx][dK](DOTA)-NH2; disulfide 4-10) yielded a Kd of less than 1 nM.
`CC[C@H](C)[C@H](NC(=O)[C@@H](NC(=O)[C@H](Cc1c[nH]c2ccccc12)NC(C)=O)[C@@H](C)O)C(=O)N[C@H]1CSSC[C@@H](C(=O)N[C@@H](Cc2c[nH]c3ccccc23)C(=O)N2CCC[C@H]2C(=O)NCc2ccc(C(=O)N[C@H](CCCCNC(=O)CN3CCN(CC(=O)O)CCN(CC(=O)O)CCN(CC(=O)O)CC3)C(N)=O)cc2)NC(=O)[C@H](CC(=O)O)NC(=O)[C@H](Cc2c[nH]cn2)NC(=O)[C@H](Cc2ccc3ccccc3c2)NC(=O)[C@H](CC(N)=O)NC(=O)[C@H](CC(N)=O)NC1=O` [compound 374, Ac-W-T-I-C(3)-N-N-(2Nal)-H-D-C(3)-W-P-(AMBX)-[D-Lys(DOTA)]-NH2] (Ac-WTICNN[2Nal]HDCWP[4Amb][dK](DOTA)-NH2; disulfide 4-10) was tested, and the Kd was less than 1 nM.
Work on `CC[C@H](C)[C@H](NC(=O)[C@@H](NC(=O)[C@H](Cc1c[nH]c2ccccc12)NC(C)=O)[C@@H](C)O)C(=O)N[C@H]1CSSC[C@@H](C(=O)N[C@@H](Cc2c[nH]c3ccccc23)C(=O)N2CCC[C@H]2C(=O)N[C@H](CCCCNC(=O)CN2CCN(CC(=O)O)CCN(CC(=O)O)CCN(CC(=O)O)CC2)C(=O)O)NC(=O)[C@H](CC(=O)O)NC(=O)[C@H](CCCN)NC(=O)[C@H](Cc2ccc3ccccc3c2)NC(=O)[C@H](CC(N)=O)NC(=O)[C@H](CC(N)=O)NC1=O` [compound 376, Ac-W-T-I-C(3)-N-N-(2Nal)-Orn-D-C(3)-W-P-[D-Lys(DOTA)]-NH2] (Ac-WTICNN[2Nal][Orn]DCWP[dK](DOTA)-OH; disulfide 4-10) yielded a Kd of less than 1 nM.
